Literature values, collected in patent US20120065069A1, “AGENT FOR REDUCING NICOTINE AND HARMFUL COMPONENTS IN TOBACCO LEAVES FOR USE IN FIELD CULTIVATION OF TOBACCO” (TOBACCO RESEARCH INSTITUTE OF HUBEI PROVINCE, priority 2009, published 2012).

Legend:
flue-cured tobacco = details: for effect in nicotine reduction: Feng Ding thesis 2006, flue-cured tobacco; for effect in reducing the nicotine content: single ingredient, flue-cured tobacco, Liu et al. 2005 (IAA), Gao et al. 2005 (α-NAA, variety K326)
bean seedling = details: 2 mmol/L salicylic acid
corn = details: 0.5 mmol/L salicylic acid

SMILES: O=C(O)COc1ccc(Cl)cc1Cl [2,4-D, 2,4-dichlorophenoxyacetic acid]
- effect in nicotine reduction (flue-cured tobacco): significant effects

SMILES: C[N+](C)(C)CCO.[Cl-] [CC, choline chloride]
- effect in nicotine reduction (flue-cured tobacco): significant effects

SMILES: O=C(O)Cc1c[nH]c2ccccc12 [indolylacetic acid]
- effect in reducing the nicotine content (flue-cured tobacco): certain effects

SMILES: O=C(O)Cc1cccc2ccccc12 [naphthylacetic acid]
- effect in reducing the nicotine content (flue-cured tobacco): certain effects

SMILES: O=C(O)c1ccccc1O [salicylic acid]
- effect on damage of drought stress to bean seedling (bean seedling): alleviate the damage of drought stress
- effect on tolerance of corn to low temperature (corn): enhance the tolerance
